Target: Dopamine receptor (Bos taurus) (UniProt Q95136+P20288)
Experiment: Ability to enhance the binding of [3H]- ADTN to dopamine receptor from freshly dissected bovine caudate
Assay type: protein assay

Enhancement | SMILES
200% | NC(=O)[C@H]1CS[C@@H]2C[C@@H](NC(=O)C3CCCN3)C(=O)N12 (some centres not stated)
75% | NC(=O)[C@H]1CS[C@@H]2CC[C@@H](NC(=O)C3CCCN3)C(=O)N12 (some centres not stated)

Reference: ChEMBL document CHEMBL1126764, “Bicyclic thiazolidine lactam peptidomimetics of the dopamine receptor modulating peptide Pro-Leu-Gly-NH2” (J Med Chem, 1993)
